Where two headings read alike, the source gives them in different places.
Legend:
[1] = biological target: T1, lysyl-tRNA synthetase 1 (LdLysRS-1) (Leishmania donovani, UniProt A0A3Q8IA00); experiment: malachite green aminoacylation assay with recombinant enzyme; thermal shift of ~[…]°C; format: biochemical
T1 construct: gene LdCL_150007600; full-length LdLysRS-1 (586 aa), N-terminal His6 tag

[2] = biological target: T1, lysyl-tRNA synthetase 1 (LdLysRS-1); experiment: as above; format: biochemical; remark: listed apart in the source

T1 sequence (A0A3Q8IA00 entry or part of it): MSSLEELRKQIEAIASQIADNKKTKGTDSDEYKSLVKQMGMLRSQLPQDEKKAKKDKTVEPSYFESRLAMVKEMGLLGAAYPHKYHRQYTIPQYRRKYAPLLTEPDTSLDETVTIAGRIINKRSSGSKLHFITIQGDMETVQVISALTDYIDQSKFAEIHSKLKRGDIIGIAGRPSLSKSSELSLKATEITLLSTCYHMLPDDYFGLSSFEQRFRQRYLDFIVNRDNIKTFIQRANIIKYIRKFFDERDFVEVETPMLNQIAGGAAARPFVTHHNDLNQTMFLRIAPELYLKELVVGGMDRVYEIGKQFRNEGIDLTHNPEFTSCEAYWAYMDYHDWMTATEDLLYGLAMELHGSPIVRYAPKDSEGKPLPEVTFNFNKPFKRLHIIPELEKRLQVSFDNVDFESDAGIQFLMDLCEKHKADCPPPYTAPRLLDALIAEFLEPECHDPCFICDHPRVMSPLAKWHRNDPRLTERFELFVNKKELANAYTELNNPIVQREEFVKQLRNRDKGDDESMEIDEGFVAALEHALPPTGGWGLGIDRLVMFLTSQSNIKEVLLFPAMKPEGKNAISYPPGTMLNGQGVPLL

IC50 [1] [µM] | IC50 [2] [µM] | Compound
~25.5 | – | C[C@@H]1CCC[C@H](C[C@@H]2Cc3cc(O)cc(O)c3C(=O)O2)O1 [3-epi-isocladosporin]
– | ~4.07 | C[C@H]1CCC[C@H](C[C@H]2Cc3cc(O)cc(O)c3C(=O)O2)O1 [cladosporin]

Source: PMC5577655 (mSphere, 2017)
